Laboratory results reported in paper PMC4601772, “Investigating Apoptozole as a Chemical Probe for HSP70 Inhibition” (PLoS ONE, 2015).

How the values were obtained:
human HSP72 [1] = target: T1, human HSP72 (Homo sapiens, UniProt P0DMV8); test: Fluorescence polarisation KD determination of probes, HSP72; assay type: binding; conditions: for pKD: human HSP72, geometric mean ± SEM, 3 measurements; for Kd: human HSP72 titrated against fixed probe concentration, geometric mean of 3
T1 construct: 6xHis (N); human rhinovirus 3C protease cleavage site (N); made in house; host or cells: E. coli BL21-AI
T1 sequence (P0DMV8 whole entry): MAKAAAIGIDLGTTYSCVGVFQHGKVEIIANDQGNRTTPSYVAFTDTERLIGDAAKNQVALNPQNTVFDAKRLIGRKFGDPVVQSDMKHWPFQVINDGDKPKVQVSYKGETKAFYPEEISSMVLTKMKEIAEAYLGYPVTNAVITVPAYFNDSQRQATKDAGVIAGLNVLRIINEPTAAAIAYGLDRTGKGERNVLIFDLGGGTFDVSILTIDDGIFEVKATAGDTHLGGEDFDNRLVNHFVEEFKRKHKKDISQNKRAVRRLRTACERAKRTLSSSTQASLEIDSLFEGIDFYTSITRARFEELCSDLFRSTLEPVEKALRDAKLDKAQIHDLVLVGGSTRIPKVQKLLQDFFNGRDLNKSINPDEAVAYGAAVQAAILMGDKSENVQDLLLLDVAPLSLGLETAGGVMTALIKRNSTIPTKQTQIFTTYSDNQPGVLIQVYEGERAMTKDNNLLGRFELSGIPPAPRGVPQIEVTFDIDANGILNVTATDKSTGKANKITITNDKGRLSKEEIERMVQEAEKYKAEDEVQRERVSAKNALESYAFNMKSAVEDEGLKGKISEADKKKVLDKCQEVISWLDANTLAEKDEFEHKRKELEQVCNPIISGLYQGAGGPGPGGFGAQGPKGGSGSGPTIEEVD
Experimental: (§1) Unless otherwise stated the aqueous assay buffer contained 50 mM TRIS base pH 7.4, 150 mM NaCl, 6 mM MgCl2, 1 mM DTT, 0.1% (wt/wt) CHAPS. The assay was conducted using 384 Plus F ProxiPlates (PerkinElmer) with a final assay volume of 10 μL. Plates were centrifuged at 1000 rpm for 1 minute prior to incubation and read using an 2103 Envision Multilable Plate Reader. Excitation and emission wavelengths used for green probes were 480 nm and 535 nm, respectively. Excitation and emission wavelengths used for red probes were 620 nm and 688 nm, respectively. Fluorescence polarisation was measured in units of millipolarization (mP). All experiments were performed in triplicate, except for experiments with ATP-Cy5 and apoptozole-Cy5, which were performed in duplicate. Data were plotted and analyzed using GraphPad Prism 6, graphical data represents the geometric mean ± standard error of the mean for a single representative experiment.
(§2) To each well, 5 μL of probe molecule (20 nM in assay buffer) and increasing concentrations of HSP70 protein (5 μL, two-fold dilution series) were added. Fluorescence polarisation values for tracer control wells (10 nM probe in assay buffer only) were subtracted from each data point prior to data analysis. KD determination was performed using non-linear regression analysis (GraphPad Prism 6, one site–specific binding model).

human HSC70 = target: T2, human HSC70 (Homo sapiens, UniProt P11142); test: Fluorescence polarisation KD determination of probes, HSC70; assay type: binding; conditions: single determination
T2 construct: purchased Abcam
T2 sequence (P11142 whole entry): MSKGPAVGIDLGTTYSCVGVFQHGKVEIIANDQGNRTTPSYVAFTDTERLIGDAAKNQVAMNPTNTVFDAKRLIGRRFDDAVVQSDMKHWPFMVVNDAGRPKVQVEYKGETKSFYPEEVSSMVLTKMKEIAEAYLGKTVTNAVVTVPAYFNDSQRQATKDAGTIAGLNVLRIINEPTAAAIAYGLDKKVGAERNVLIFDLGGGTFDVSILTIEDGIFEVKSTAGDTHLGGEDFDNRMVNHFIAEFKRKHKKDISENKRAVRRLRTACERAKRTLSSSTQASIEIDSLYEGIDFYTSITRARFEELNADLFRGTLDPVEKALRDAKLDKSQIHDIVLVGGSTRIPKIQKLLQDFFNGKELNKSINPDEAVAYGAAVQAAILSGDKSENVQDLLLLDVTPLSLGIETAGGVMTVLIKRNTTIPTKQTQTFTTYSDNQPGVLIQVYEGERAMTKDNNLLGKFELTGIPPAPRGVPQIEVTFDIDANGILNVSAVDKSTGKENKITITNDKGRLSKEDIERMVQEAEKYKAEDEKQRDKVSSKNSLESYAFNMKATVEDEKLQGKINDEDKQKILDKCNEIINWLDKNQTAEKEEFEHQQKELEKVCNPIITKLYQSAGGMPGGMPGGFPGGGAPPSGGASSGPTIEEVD
Experimental: as §1, §2

human HSP72 [2] = target: T1, human HSP72; test: Fluorescence polarisation competitive binding with ATP-FAM probe; conditions: for IC50: displacement of ATP-FAM (10 nM) from human HSP72, geometric mean of 3; for pIC50: displacement of ATP-FAM from human HSP72, geometric mean ± SEM, 3 measurements
Experimental: as §1
Compounds (0.2 μL at 50 x screening concentration in DMSO) were dispensed using an ECHO 550 Liquid Handler (labcyte Inc.). To the corresponding wells was added, 5 μL of probe molecule (20 nM in assay buffer) and 5 μL of protein (two times their final concentration in assay buffer) to give a 50% bound fraction.[30] Tracer controls (10 nM probe molecule only) and bound tracer controls (10 nM probe in the presence of appropriate protein concentration) were included on each assay plate. IC50 determination was performed using non-linear least squares curve fitting (GraphPad Prism 6, log(inhibitor) vs. response—variable slope (four parameters)).

[3] = Dynamic light scattering (aggregation under aqueous conditions); assay type: physicochemical
Experimental: Apoptozole and VER-155008 (10 mM in DMSO) were diluted in 1 x PBS buffer with a final DMSO concentration of 2%, ± 0.01% v/v Triton X-100. Measurements were performed using a Protein Solutions DynaPro (Wyatt Technology) at room temperature. Data were acquired and processed by the software Dynamics, version 6.10 and calculation of particle radius performed by the cumulant analysis tool. The detector angle was 90°, the laser power was set to 30% and the integration time was 150 s. Each radius value presents three independent measurements, values are quotes as arithmetic mean ± standard error of the mean.

human HSP72 [4] = target: T1, human HSP72; test: SPR Procedure A, biotinylated apoptozole 4 on neutravidin chip, human HSP72; assay type: binding; conditions: human HSP72 31–500 nM, control subtracted
Experimental: (§3) SPR analysis was performed on a Biacore T200 (GE Healthcare) at 25°C at a flow rate of 30 μL/min. The running buffer contained 1 x PBS and was prepared from 10 x concentrated PBS (GE Healthcare) on the day of use. Series S Sensor Chip CM5 was purchased from GE Healthcare, stored at […] and brought to room temperature prior to use.
(§4) The sensor chip was activated by injection of a 1:1 mixture of 500 mM NHS and 200 mM EDC for 420 seconds. Neutravidin (50 μg/mL in 10 mM sodium acetate buffer, pH 5.5) was injected across the chip surface for 60 seconds, followed by injection of 1 mM ethanolamine (pH 8.5) for 420 seconds. Biotinylated-apoptozole 4 (100 μM in 1:1 DMSO/PBS) was injected over the chip surface for 420 seconds. Human and rat HSP72 (500 nM in PBS) were injected at concentrations of 31–500 nM, injection time: 60 seconds, dissociation time: 60 seconds. The control lane was subjected to the conditions described above but derivatization with biotinylated apoptozole 4 was omitted.

rat HSP72 [5] = target: T3, rat HSP72 (Rattus norvegicus, UniProt P0DMW0); test: SPR Procedure A, biotinylated apoptozole 4 on neutravidin chip, rat HSP72; assay type: binding; conditions: rat HSP72 31–500 nM, control subtracted
T3 construct: purchased Enzo Life Sciences
T3 sequence (P0DMW0 2-641 limits assumed): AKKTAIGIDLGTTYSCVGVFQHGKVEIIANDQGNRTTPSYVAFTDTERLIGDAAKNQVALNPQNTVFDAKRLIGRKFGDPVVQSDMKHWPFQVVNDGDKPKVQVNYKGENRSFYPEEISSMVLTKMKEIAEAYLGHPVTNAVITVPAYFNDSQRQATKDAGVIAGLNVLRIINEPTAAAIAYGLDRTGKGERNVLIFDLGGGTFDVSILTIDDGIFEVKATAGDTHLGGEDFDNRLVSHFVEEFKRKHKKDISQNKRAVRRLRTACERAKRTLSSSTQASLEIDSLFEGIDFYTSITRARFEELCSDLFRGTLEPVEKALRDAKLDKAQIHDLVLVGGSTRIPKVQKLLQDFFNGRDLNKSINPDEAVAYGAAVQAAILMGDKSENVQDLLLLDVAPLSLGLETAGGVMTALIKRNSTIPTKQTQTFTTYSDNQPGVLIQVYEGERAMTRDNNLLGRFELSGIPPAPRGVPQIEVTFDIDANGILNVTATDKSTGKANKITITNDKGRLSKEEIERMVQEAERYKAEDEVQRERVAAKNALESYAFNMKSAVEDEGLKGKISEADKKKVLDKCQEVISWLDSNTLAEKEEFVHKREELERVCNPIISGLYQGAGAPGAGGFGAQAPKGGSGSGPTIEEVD
Experimental: as §3, §4

rat HSP72 [6] = target: T3, rat HSP72; parameters: method as in PMID 18729127; conditions: SPR; cited from earlier work
bovine HSC70 = target: bovine HSC70; parameters: method as in PMID 18729127; conditions: SPR; cited from earlier work
SK-OV-3 = tested on: SK-OV-3; parameters: method as in PMID 18729127; conditions: cited from earlier work
HCT-15 = tested on: HCT-15; parameters: method as in PMID 18729127; conditions: cited from earlier work
A549 = tested on: A549; parameters: method as in PMID 18729127; conditions: cited from earlier work
HSP70 = tested on: HSP70; parameters: method as in PMID 24265689; conditions: cited from earlier work
human HSP72 [7] = target: T1, human HSP72; test: SPR Procedure B, apoptozole derivative 6 bound directly to CM5 chip; assay type: binding; conditions: three immobilisation levels, HSP72 up to 32 μM
Experimental: as §3
The sensor chip was activated by injection of a 1:1 mixture of 500 mM NHS and 200 mM EDC for 420 seconds. Apoptozole derivative 6 (100 μM in 1:1 DMSO/PBS) was injected over the chip surface, to give immobilization levels of approximately 4000, 8000 and 12000 RU. Ethanolamine (1 mM, pH 8.5) was then injected over the chip surface for 420 seconds. Human HSP72 (32 μM in PBS) was injected at concentrations of 62 nM–32 μM, injection time: 60 seconds, dissociation time: 60 seconds. The control lane was subjected to the conditions described above but derivatization with apoptozole derivative 6 was omitted.

[8] = 10 μM, without Triton X-100, PBS 2% DMSO

Compound: N^6-(6-Amino)hexyl-ATP-Cy5
- pKD (human HSP72 [1]): 5.95 ± 0.02
- Kd (human HSP72 [1]): 1100 nM

Compound: N^6-(6-Amino)hexyl-ATP-6-FAM [ATP-FAM]
- pKD (human HSP72 [1]): 6.50 ± 0.04
- Kd (human HSP72 [1]): 320 nM
- Kd (human HSC70): 970 nM

Compound: N#Cc1ccc(COC[C@H]2O[C@@H](n3c(NCc4ccc(Cl)c(Cl)c4)nc4c(N)ncnc43)[C@H](O)[C@@H]2O)cc1 [VER-155008]
- IC50 (human HSP72 [2]): 490 nM
- pIC50 (human HSP72 [2]): 6.31 ± 0.06
- Aggregate formation ([3]; 10 μM): no evidence of aggregate formation
- Intensity ([3]; 10 μM, with 0.01% Triton X-100): 318.2 ± 61.3 kcps
- Radius ([3]; 10 μM, with 0.01% Triton X-100): 101.1 ± 9.0 nm
- Intensity ([3]; 10 μM, without Triton X-100): 63.2 ± 5.8 kcps
- Radius [3, 8]: 88.5 ± 8.3 nm

Compound: Nc1ncnc2c1ncn2[C@@H]1O[C@H](COP(=O)(O)OP(=O)(O)OP(=O)(O)O)[C@@H](O)[C@H]1O [ATP]
- IC50 (human HSP72 [2]): 1200 nM
- pIC50 (human HSP72 [2]): 5.94 ± 0.05

Compound: Nc1ncnc2c1ncn2[C@@H]1O[C@H](COP(=O)(O)OP(=O)(O)O)[C@@H](O)[C@H]1O [ADP]
- IC50 (human HSP72 [2]): 670 nM
- pIC50 (human HSP72 [2]): 6.17 ± 0.11

Compound: COc1ccc(-c2nc(-c3cc(C(F)(F)F)cc(C(F)(F)F)c3)n(Cc3ccc(C(=O)NCCOCCOCCNC(=O)CCC(=O)NCCOCCOCCNC(=O)CCCC[C@@H]4SC[C@@H]5NC(=O)N[C@@H]54)cc3)c2-c2ccc(OC)cc2)cc1 [compound 4, N^1-(2-(2-(2-(4-((2-(3,5-Bis(trifluoromethyl)phenyl)-4,5-bis(4-methoxyphenyl)-1H-imidazol-1-yl)methyl)benzamido)ethoxy)ethoxy)ethyl)-N^4-(2-(2-(2-(5-((3aS,4S,6aR)-2-oxohexahydro-1H-thieno[3,4-d]imidazol-4-yl)pentanamido)ethoxy)ethoxy)ethyl)succinamide]
- Binding interaction (SPR) (human HSP72 [4]): no evidence of binding interactions
- Binding interaction (SPR) (rat HSP72 [5]): no evidence of binding interactions

Compound: COc1ccc(-c2nc(-c3cc(C(F)(F)F)cc(C(F)(F)F)c3)n(Cc3ccc(C(N)=O)cc3)c2-c2ccc(OC)cc2)cc1 [apoptozole]
- ATP-competitive binding (displacement of ATP-FAM probe) (human HSP72 [2]; concentrations up to 80 μM): no displacement of the ATP-FAM probe observed
- Intensity ([3]; 1 μM, without Triton X-100): 132.6 ± 39.7 kcps
- Radius ([3]; 1 μM, without Triton X-100): 89.3 ± 5.8 nm
- Intensity ([3]; 5 μM, without Triton X-100): 1047.5 ± 183.1 kcps
- Radius ([3]; 5 μM, without Triton X-100): 454.4 ± 36.4 nm
- Intensity ([3]; 10 μM, with 0.01% Triton X-100): 2350.0 ± 173.1 kcps
- Radius ([3]; 10 μM, with 0.01% Triton X-100): 86.5 ± 2.1 nm
- Intensity ([3]; 10 μM, without Triton X-100): 1441.1 ± 186.5 kcps
- Radius [3, 8]: 521.5 ± 30.9 nm
- Concentration at which large colloidal aggregates form ([3]; aqueous conditions): ≥ 5 µM
- Particle radius ([3]; concentrations ≥ 5 μM, without detergent): > 450 nm
- Kd (rat HSP72 [6]): 140 nM
- Kd (bovine HSC70): 210 nM
- GI50 (SK-OV-3): 220 nM
- GI50 (HCT-15): 250 nM
- GI50 (A549): 130 nM

Compound: pifithrin-μ
- Mode of binding to HSP70 (HSP70): unspecific, detergent-like way

Compound: COc1ccc(-c2nc(-c3cc(C(F)(F)F)cc(C(F)(F)F)c3)n(Cc3ccc(C(=O)NCCOCCOCCNC(=O)CCC(=O)NCCOCCOCCN)cc3)c2-c2ccc(OC)cc2)cc1 [compound 6, N^1-(2-(2-(2-Aminoethoxy)ethoxy)ethyl)-N^4-(2-(2-(2-(4-((2-(3,5-bis(trifluoromethyl)phenyl)-4,5-bis(4-methoxyphenyl)-1H-imidazol-1-yl)methyl)benzamido)ethoxy)ethoxy)ethyl)succinamide]
- Binding interaction (SPR) (human HSP72 [7]): no binding interactions were observed
